Calls of active or inactive are those of the source. Some results are limits rather than exact numbers.

The target in test [1] is T1, Histone-lysine N-methyltransferase NSD2 (Homo sapiens, UniProt O96028).
T1 sequence (O96028 whole entry): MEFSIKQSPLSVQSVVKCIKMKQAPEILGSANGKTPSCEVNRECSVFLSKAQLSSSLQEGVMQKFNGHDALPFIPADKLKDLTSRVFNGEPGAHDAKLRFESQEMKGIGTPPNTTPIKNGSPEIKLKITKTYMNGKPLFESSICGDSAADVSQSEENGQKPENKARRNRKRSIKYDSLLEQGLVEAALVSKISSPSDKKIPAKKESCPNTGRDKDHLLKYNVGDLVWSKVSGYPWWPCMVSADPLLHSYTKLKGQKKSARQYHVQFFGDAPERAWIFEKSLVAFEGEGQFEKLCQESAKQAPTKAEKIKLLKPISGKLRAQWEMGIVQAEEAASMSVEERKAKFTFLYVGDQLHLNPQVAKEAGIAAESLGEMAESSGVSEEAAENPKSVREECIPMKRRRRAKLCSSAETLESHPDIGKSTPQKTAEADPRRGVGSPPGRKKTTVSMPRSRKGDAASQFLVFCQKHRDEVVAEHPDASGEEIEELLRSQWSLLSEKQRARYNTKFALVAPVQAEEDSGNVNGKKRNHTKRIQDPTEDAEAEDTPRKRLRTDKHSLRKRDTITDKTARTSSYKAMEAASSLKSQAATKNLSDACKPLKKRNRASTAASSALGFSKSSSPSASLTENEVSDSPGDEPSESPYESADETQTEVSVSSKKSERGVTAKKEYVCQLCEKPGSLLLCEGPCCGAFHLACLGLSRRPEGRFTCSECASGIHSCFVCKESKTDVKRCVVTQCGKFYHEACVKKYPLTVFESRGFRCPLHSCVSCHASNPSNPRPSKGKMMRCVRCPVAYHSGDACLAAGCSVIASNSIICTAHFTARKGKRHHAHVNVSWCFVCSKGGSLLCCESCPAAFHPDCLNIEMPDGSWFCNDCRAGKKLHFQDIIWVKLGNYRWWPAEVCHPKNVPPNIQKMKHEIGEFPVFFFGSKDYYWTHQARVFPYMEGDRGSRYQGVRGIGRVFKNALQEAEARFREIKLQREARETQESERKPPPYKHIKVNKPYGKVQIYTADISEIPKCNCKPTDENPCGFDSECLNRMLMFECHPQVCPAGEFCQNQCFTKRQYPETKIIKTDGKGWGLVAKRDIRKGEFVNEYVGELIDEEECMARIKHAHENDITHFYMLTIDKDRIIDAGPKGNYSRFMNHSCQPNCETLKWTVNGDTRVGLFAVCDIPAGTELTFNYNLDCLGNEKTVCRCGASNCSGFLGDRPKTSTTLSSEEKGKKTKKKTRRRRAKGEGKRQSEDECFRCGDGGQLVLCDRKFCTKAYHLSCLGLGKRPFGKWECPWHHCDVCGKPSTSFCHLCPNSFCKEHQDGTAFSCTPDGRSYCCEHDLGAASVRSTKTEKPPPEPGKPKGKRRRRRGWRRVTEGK
In kind it is biochemical.

Test [2] has as its target Vascular endothelial growth factor receptor 1 (Homo sapiens, UniProt P17948). It counts as functional.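 Further: measured within a kinome-wide profiling panel, FLT1 as the panel member.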
In test [3] the target is Mitogen-activated protein kinase 14 (Homo sapiens, UniProt Q16539). In kind it is functional.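 Further: part of a kinome-wide panel, MAPK14 entry.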
Chain of Mitogen-activated protein kinase 14 (Q16539 whole entry): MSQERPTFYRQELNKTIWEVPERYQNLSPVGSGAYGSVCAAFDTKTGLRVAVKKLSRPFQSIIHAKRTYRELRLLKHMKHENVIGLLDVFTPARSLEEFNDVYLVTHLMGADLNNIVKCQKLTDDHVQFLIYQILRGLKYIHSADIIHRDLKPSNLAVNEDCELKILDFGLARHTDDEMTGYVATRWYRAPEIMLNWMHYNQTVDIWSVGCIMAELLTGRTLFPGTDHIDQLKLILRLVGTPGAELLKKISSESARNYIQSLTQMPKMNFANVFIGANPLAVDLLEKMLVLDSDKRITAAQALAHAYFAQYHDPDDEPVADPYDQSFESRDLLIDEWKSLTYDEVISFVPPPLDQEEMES
The target in test [4] is Cyclin-dependent kinase 8 (Homo sapiens, UniProt P49336). The test is described as follows: Navigating the Kinome. Panel member name: CDK8. It counts as functional.
Test [5] has as its target cGMP-dependent protein kinase 1 (Homo sapiens, UniProt Q13976). In kind it is functional.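 Further: value from a kinome panel screen with PRKG1 as the panel member.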
Test [6] addresses Calcium/calmodulin-dependent protein kinase type II subunit beta (Homo sapiens, UniProt Q13554). It counts as functional.
The target of test [7] is Tyrosine-protein kinase BTK (Homo sapiens, UniProt Q06187). It counts as functional.
The target of test [8] is Dual specificity tyrosine-phosphorylation-regulated kinase 4 (Homo sapiens, UniProt Q9NR20). In kind it is functional.
Chain of Dual specificity tyrosine-phosphorylation-regulated kinase 4 (Q9NR20 whole entry): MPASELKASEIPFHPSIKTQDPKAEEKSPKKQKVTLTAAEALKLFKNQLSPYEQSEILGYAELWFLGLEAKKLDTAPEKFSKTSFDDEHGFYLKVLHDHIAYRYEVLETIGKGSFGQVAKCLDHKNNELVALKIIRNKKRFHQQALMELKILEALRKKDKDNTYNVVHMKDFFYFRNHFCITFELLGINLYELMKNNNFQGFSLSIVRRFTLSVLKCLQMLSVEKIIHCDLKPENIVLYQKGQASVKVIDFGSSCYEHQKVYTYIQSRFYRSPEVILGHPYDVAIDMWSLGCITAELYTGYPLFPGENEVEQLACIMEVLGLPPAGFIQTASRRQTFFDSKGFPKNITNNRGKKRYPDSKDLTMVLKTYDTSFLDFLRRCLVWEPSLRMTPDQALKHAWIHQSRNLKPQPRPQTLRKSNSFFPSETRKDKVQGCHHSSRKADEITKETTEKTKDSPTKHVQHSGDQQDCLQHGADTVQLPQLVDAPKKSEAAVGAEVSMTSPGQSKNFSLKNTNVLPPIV
For test [9], the target named is 5'-AMP-activated protein kinase catalytic subunit alpha-1 (Homo sapiens, UniProt Q13131). In kind it is functional.
Chain of 5'-AMP-activated protein kinase catalytic subunit alpha-1 (Q13131 whole entry): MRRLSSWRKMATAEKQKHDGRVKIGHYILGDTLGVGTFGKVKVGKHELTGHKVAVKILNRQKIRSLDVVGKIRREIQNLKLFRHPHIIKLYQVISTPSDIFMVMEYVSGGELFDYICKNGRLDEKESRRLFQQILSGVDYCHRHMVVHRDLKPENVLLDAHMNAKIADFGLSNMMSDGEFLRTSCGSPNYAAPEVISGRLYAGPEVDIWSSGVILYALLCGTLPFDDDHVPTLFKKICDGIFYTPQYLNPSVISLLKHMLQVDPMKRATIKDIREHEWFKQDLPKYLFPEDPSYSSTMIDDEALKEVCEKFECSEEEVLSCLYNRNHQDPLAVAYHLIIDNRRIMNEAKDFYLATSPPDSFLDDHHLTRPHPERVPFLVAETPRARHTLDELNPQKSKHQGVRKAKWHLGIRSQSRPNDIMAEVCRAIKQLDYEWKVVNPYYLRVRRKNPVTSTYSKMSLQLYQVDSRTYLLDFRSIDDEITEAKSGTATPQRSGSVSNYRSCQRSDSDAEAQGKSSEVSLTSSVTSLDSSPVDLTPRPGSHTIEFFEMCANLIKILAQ
Test [10] concerns the target Glycogen synthase kinase-3 beta (Homo sapiens, UniProt P49841). In kind it is functional.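 Further: value comes from a broad kinome profiling panel, with GSK3B as the panel member.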
Test [11] addresses Protein kinase C iota type (Homo sapiens, UniProt P41743). In kind it is functional.
The target in test [12] is Dual specificity mitogen-activated protein kinase kinase 2 (Homo sapiens, UniProt P36507). The test is described as follows: Navigating the Kinome. Panel member name: MAP2K2. In kind it is functional.
Test [13] has as its target Insulin-like growth factor 1 receptor (Homo sapiens, UniProt P08069). The test is described as follows: Navigating the Kinome. Panel member name: IGF1R. It counts as functional.
In test [14] the target is Serine/threonine-protein kinase SIK2 (Homo sapiens, UniProt Q9H0K1). In words: Navigating the Kinome. Panel member name: SIK2. It counts as functional.
The target in test [15] is Tyrosine-protein kinase receptor UFO (Homo sapiens, UniProt P30530). It counts as functional.
Test [16] has as its target Homeodomain-interacting protein kinase 2 (Homo sapiens, UniProt Q9H2X6). It counts as functional.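 Further: measured within a kinome-wide kinase profiling panel, HIPK2 being one panel member.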
Test [17] concerns the target Fibroblast growth factor receptor 1 (Homo sapiens, UniProt P11362). In kind it is functional.
The target of test [18] is RAC-alpha serine/threonine-protein kinase (Homo sapiens, UniProt P31749). It counts as functional.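 Further: AKT1 affinity measured as one member of a kinome-wide kinase profiling panel.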
Test [19] deals with G protein-coupled receptor kinase 5 (Homo sapiens, UniProt P34947). The test is described as follows: Navigating the Kinome. Panel member name: GPRK5. It counts as functional.
Chain of G protein-coupled receptor kinase 5 (P34947 whole entry): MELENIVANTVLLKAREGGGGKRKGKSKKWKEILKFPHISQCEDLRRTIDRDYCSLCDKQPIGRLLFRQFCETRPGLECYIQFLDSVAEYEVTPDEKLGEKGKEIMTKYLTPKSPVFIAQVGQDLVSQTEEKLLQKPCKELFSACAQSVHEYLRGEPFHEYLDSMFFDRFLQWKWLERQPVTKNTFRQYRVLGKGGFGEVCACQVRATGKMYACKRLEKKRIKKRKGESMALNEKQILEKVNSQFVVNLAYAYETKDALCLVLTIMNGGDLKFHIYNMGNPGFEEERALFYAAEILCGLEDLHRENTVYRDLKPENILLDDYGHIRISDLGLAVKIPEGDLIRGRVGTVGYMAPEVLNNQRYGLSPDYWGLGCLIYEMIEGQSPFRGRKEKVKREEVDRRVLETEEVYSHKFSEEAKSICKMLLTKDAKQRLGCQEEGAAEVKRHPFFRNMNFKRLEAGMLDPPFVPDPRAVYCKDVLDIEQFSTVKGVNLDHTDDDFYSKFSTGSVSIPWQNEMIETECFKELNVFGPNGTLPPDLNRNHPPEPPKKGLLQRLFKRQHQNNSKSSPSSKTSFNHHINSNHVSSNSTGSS
The target in test [20] is Calcium/calmodulin-dependent protein kinase kinase 2 (Homo sapiens, UniProt Q96RR4). The test is described as follows: Navigating the Kinome. Panel member name: CAMKK2. It counts as functional.
For test [21], the target named is Phosphorylase b kinase gamma catalytic chain, liver/testis isoform (Homo sapiens, UniProt P15735). In kind it is functional.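 Further: PHKG2 measured as one member of a kinome-wide kinase panel.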
In test [22] the target is Platelet-derived growth factor receptor alpha (Homo sapiens, UniProt P16234). In words: Navigating the Kinome. Panel member name: PDGFRA. In kind it is functional.
In test [23] the target is Tyrosine-protein kinase Lck (Homo sapiens, UniProt P06239). In kind it is functional.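 Further: lck was assayed as one member of a kinase panel.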
Chain of Tyrosine-protein kinase Lck (P06239 whole entry): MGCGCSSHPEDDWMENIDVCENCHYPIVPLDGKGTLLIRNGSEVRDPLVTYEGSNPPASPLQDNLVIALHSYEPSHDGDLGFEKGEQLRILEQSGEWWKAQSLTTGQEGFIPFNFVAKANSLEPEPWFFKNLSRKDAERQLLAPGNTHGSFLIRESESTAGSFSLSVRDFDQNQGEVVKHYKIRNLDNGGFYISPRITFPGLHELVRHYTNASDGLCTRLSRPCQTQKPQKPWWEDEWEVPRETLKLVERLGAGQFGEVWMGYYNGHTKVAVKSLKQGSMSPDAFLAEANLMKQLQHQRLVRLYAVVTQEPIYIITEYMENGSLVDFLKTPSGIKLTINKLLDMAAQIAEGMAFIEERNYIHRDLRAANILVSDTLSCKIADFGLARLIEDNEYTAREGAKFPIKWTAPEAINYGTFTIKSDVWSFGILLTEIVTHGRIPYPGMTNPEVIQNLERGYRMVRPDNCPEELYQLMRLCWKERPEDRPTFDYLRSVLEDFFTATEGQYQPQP
The target in test [24] is Leukocyte tyrosine kinase receptor (Homo sapiens, UniProt P29376). The test is described as follows: Navigating the Kinome. Panel member name: LTK. It counts as functional.
For test [25], the target named is Tyrosine-protein kinase Fyn (Homo sapiens, UniProt P06241). In kind it is functional.
Chain of Tyrosine-protein kinase Fyn (P06241 whole entry): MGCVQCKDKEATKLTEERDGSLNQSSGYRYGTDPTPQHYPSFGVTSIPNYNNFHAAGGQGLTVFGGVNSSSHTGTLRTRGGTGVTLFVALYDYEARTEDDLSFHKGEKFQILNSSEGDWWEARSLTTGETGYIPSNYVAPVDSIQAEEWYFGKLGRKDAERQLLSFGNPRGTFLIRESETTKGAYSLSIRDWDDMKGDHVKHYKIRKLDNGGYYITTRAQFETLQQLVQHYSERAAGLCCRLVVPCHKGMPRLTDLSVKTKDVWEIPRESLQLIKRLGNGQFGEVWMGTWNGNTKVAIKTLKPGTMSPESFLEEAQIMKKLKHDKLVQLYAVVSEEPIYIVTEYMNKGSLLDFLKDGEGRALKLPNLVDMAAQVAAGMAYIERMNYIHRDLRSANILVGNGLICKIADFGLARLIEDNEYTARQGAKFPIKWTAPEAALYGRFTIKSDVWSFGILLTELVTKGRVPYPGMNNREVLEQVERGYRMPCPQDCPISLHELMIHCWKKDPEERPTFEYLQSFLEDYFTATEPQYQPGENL
Test [26] has as its target Cyclin-dependent kinase 9 (Homo sapiens, UniProt P50750). It counts as functional.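 Further: value from the CDK9 entry of a kinome-spanning kinase panel.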
Another test deals with LIM domain kinase 1 (Homo sapiens, UniProt P53667). In words: Navigating the Kinome. Panel member name: LIMK1. It counts as functional.
Test [27] deals with Interleukin-1 receptor-associated kinase 4 (Homo sapiens, UniProt Q9NWZ3). It counts as functional.

Chain of Cyclin-dependent kinase 9 (P50750 whole entry, the tested form may be a part): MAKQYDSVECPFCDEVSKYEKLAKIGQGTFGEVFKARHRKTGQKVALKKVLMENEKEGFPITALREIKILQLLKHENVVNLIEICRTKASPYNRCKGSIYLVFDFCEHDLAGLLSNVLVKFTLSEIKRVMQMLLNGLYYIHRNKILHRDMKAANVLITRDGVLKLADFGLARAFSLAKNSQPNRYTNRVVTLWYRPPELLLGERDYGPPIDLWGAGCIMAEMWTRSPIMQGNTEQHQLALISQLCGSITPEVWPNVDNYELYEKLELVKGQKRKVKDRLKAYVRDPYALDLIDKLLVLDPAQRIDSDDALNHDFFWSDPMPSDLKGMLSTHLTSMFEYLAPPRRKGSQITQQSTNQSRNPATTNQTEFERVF
Chain of Fibroblast growth factor receptor 1 (P11362 whole entry): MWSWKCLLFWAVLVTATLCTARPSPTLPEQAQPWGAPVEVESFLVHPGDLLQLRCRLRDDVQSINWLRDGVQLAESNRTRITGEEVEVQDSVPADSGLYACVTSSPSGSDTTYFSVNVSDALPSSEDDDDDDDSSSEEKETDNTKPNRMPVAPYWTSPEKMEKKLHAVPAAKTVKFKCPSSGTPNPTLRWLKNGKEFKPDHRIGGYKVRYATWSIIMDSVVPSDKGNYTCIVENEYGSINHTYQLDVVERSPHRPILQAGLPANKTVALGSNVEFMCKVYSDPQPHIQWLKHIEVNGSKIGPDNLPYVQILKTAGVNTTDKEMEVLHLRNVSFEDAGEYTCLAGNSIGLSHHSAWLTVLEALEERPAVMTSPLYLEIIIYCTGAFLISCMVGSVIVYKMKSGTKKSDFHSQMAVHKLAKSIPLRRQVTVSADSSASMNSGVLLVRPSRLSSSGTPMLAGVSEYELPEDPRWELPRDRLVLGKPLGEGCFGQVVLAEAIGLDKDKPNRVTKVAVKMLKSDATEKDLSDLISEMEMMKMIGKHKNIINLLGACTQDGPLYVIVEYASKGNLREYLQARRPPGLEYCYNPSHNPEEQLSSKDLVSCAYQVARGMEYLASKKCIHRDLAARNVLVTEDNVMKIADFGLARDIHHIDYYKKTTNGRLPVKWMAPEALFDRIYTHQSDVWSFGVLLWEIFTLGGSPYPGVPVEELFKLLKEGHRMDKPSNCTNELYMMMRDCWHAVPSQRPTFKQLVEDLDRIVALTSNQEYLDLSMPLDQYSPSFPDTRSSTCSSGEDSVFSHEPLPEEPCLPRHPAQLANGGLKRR
Chain of cGMP-dependent protein kinase 1 (Q13976 whole entry): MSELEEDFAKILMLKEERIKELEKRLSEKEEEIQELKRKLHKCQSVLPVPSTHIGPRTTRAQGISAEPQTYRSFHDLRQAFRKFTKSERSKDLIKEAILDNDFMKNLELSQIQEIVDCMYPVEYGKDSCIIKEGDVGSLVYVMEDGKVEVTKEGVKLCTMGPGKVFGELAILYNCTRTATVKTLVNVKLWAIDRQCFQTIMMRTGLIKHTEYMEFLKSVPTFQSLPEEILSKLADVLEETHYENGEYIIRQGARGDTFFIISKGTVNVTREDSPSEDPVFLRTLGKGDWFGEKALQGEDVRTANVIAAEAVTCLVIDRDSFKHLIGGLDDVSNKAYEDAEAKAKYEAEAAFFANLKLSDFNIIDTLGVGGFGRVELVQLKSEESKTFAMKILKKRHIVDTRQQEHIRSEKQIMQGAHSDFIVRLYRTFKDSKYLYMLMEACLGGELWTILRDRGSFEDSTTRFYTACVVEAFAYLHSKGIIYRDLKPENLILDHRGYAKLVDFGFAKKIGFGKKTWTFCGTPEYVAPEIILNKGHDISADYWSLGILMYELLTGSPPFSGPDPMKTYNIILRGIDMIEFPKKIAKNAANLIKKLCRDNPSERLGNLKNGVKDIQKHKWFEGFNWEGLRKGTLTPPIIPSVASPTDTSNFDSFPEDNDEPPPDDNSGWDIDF

A word on the AC50: it is the concentration at which the activity in the assay is half-maximal. Take `CCCn1nc([N+](=O)[O-])c(C(C#N)c2nc3ccccc3s2)c(Cl)c1=O` (stereo not drawn): the AC50 in [1] was > 20 µM (inactive).

Usually Ki stands for the dissociation constant of the complex between target and ligand, obtained from inhibition or displacement. `NCCCn1cc(-c2cc(-c3cc4ccccc4s3)c3[nH]ncc3c2)c2nc(N)ncc21`: the Ki in [2] was > 2.51 µM (inactive); in [3], > 3.98 µM (inactive); in test [4] it was > 3.98 µM (inactive); in test [5], 0.00631 µM (active); in test [6], 3.16 µM (active); in test [7] it was > 3.98 µM (inactive). The Ki was 0.794 µM (active) in test [8]; 0.794 µM (active) in test [9]; 0.316 µM (active) in test [10]; 0.00316 µM (active) in [11]; > 3.98 µM (inactive) in test [12]; > 2 µM (inactive) in test [13]. The Ki in test [14] is 0.251 µM (active); in test [15], 0.501 µM (active); in test [16], 0.631 µM (active); in test [17], > 3.98 µM (inactive); in test [18], 0.251 µM (active); in [19], > 3.98 µM (inactive). The Ki in test [20] was > 2.51 µM (inactive); in test [21] it was 0.126 µM (active); in test [22], > 2 µM (inactive); in test [23] it was > 3.98 µM (inactive); in [24], > 2.51 µM (inactive); in [25], > 3.16 µM (inactive). The Ki in test [26] was > 1.58 µM (inactive); on LIM domain kinase 1, 1.26 µM (active); in test [27], 7.94 µM (active).

Source of the values: ChEMBL document CHEMBL1201862, “PubChem BioAssay data set” (2004).
